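Five concentrations, 48 hours, 96-well plates. Abbreviation: GI50, concentration required for 50% inhibition of growth.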 Calls of active or inactive are those of the source. No stated cut-off is given here; in the data, active = GI50 up to about 1.1 µM and inactive = higher.
Key:
Test in all cases: NCI-60 cell line screen, 48 h
[1] = system: HOP-62
[2] = system: SF-268
[3] = system: SNB-78
[4] = system: NCI-H522
[5] = system: UACC-62
[6] = system: SNB-75
[7] = system: SK-MEL-5
[8] = system: DLD-1
[9] = system: LOX IMVI
[10] = system: SW-620
[11] = system: OVCAR-3
[12] = system: OVCAR-8
[13] = system: U-251
[14] = system: DMS-273
[15] = system: A498
[16] = system: HCT-116
[17] = system: HL-60
[18] = system: HOP-92
[19] = system: SK-MEL-28
[20] = system: NCI-H460
[21] = system: SR
[22] = system: SNB-19
[23] = system: OVCAR-5
[24] = system: MOLT-4
[25] = system: HCT-15
[26] = system: M19-MEL
[27] = system: NCI-H23
[28] = system: SN12C
[29] = system: RPMI-8226
[30] = system: 786-0
[31] = system: SF-295
[32] = system: SK-OV-3
[33] = system: SK-MEL-2
[34] = system: HOP-18
[35] = system: SF-539
[36] = system: CAKI-1
[37] = system: K562
[38] = system: ACHN
[39] = system: UO-31
[40] = system: TK-10
[41] = system: A549
[42] = system: CCRF-CEM
[43] = system: M14
[44] = system: IGROV-1
[45] = system: COLO 205
[46] = system: RXF 393
[47] = system: XF498
[48] = system: Malme-3M
[49] = system: EKVX
[50] = system: HT-29
[51] = system: OVCAR-4
[52] = system: KM12
[53] = system: LXFL 529
[54] = system: RXF 631
[55] = system: UACC-257

In the case of `O=C1NC2(CCCC2)C(=O)C12CCCC2`, the GI50 [1] is reported as > 100 µM (inactive), the GI50 [2] is reported as > 100 µM (inactive) and the GI50 [3] is reported as > 100 µM (inactive). The GI50 [4] was > 100 µM (inactive), the GI50 [5] was > 100 µM (inactive) and the GI50 [6] was > 100 µM (inactive). For the same molecule, the GI50 [7] was > 100 µM (inactive), the GI50 [8] was > 100 µM (inactive) and the GI50 [9] was > 100 µM (inactive). The GI50 [10] was > 100 µM (inactive), the GI50 [11] was > 100 µM (inactive) and the GI50 [12] was > 100 µM (inactive). For the same molecule, the GI50 [13] was > 100 µM (inactive), the GI50 [14] was > 100 µM (inactive) and the GI50 [15] was > 100 µM (inactive). The GI50 [16] was > 100 µM (inactive), the GI50 [17] was > 100 µM (inactive) and the GI50 [18] was > 100 µM (inactive). The GI50 [19] was > 100 µM (inactive), the GI50 [20] was > 100 µM (inactive) and the GI50 [21] was > 100 µM (inactive). For the same molecule, the GI50 [22] was > 100 µM (inactive), the GI50 [23] was > 100 µM (inactive) and the GI50 [24] was > 100 µM (inactive). The GI50 [25] was > 100 µM, the GI50 [26] was > 100 µM (inactive) and the GI50 [27] was > 100 µM (inactive). The GI50 [28] was > 100 µM (inactive), the GI50 [29] was > 100 µM (inactive) and the GI50 [30] was > 100 µM (inactive). For the same molecule, the GI50 [31] was > 100 µM (inactive), the GI50 [32] was > 100 µM (inactive) and the GI50 [33] was > 100 µM (inactive). The GI50 [34] was > 100 µM (inactive), the GI50 [35] was > 100 µM (inactive) and the GI50 [36] was > 100 µM (inactive). The GI50 [37] was > 100 µM (inactive), the GI50 [38] was > 100 µM (inactive) and the GI50 [39] was > 100 µM (inactive). For the same molecule, the GI50 [40] was > 100 µM (inactive), the GI50 [41] was > 100 µM (inactive) and the GI50 [42] was > 100 µM (inactive). The GI50 [43] was > 100 µM (inactive), the GI50 [44] was > 100 µM (inactive) and the GI50 [45] was > 100 µM (inactive). The GI50 [46] was > 100 µM (inactive), the GI50 [47] was > 100 µM (inactive) and the GI50 [48] was > 100 µM (inactive). For the same molecule, the GI50 [49] was > 100 µM (inactive), the GI50 [50] was > 100 µM (inactive) and the GI50 [51] was > 100 µM (inactive). The GI50 [52] was > 100 µM (inactive), the GI50 [53] was > 100 µM (inactive) and the GI50 [54] was > 100 µM (inactive). For the same molecule, the GI50 [55] was > 100 µM (inactive).
